# According to US8263606B2 (Xenon Pharmaceuticals Inc., priority 2008, dated 2012):
# Columns and labels:
# sodium channel = test: Guanidine influx assay (14C-guanidine radiotracer flux, in vitro); format: cell-based, human or rat; conditions: guanidine influx assay using a known cell line that expresses a sodium channel; activity level class
# Outline: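 Test agents at half-step dilutions around 1 μM are added to plated cells in low-sodium HEPES buffer, then an aconitine/14C-guanidine mixture; after ambient-temperature incubation, cells are washed and counted. IC50 comes from a sigmoidal fit.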
# CYP3A4 = CYP3A4 (Homo sapiens, UniProt P08684); test: Cytochrome P450 (CYP450) Inhibition Assay, CYP3A4 (Vivid fluorescence, BOMCC substrate); conditions: human, P450 Baculosomes (recombinant CYP3A4), probe BOMCC (Vivid substrate)
# CYP3A4, sequence (P08684 whole entry): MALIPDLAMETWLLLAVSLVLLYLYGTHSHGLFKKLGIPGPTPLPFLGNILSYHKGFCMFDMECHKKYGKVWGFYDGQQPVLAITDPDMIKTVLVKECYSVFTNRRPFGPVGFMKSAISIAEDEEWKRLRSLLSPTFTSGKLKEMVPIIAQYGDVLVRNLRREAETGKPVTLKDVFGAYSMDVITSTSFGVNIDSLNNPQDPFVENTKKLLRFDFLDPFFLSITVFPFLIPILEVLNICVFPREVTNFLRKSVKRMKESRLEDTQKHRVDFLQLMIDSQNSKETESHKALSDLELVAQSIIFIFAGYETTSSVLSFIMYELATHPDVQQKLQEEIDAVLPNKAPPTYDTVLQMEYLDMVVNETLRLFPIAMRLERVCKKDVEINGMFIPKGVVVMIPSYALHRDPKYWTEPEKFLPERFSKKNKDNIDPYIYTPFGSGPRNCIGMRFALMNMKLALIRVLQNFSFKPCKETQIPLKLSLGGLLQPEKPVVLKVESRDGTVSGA
IC50 (sodium channel),melting point,inhibition at 10 µM (CYP3A4),Structure (SMILES)
0.001 to 0.1 µM,240 °C (dec.),> 50%,"O=C1Nc2c(Br)cccc2C12COc1cc3c(cc12)OCO3 (stereo not drawn) [Example 1.5, 7′-bromospiro[furo[2,3-f][1,3]benzodioxole-7,3′-indol]-2′(1′H)-one]"
0.001 to 0.1 µM,132 to 136 °C,> 50%,"CC(C)c1cc(CN2C(=O)C3(COc4cc5c(cc43)OCO5)c3ccccc32)on1 (stereo not drawn) [Example 1.6, 1′-[(3-isopropylisoxazol-5-yl)methyl]spiro[furo[2,3-f][1,3]benzodioxole-7,3′-indol]-2′(1′H)-one]"
0.001 to 0.1 µM,136 to 137 °C,> 50%,"Cc1nc(CN2C(=O)C3(COc4cc5c(cc43)OCO5)c3ccccc32)c(C(F)(F)F)o1 (stereo not drawn) [Example 1.9, 1′-{[2-methyl-5-(trifluoromethyl)-1,3-oxazol-4-yl]methyl}spiro[furo[2,3-f][1,3]benzodioxole-7,3′-indol]-2′(1′H)-one]"
0.001 to 0.1 µM,201 to 202 °C,> 50%,"O=C1N(Cc2ccc(Br)cn2)c2ccccc2C12COc1cc3c(cc12)OCCO3 (stereo not drawn) [Example 1.14, 1′-[(5-bromopyridin-2-yl)methyl]-2,3-dihydrospiro[furo[2,3-g][1,4]benzodioxine-8,3′-indol]-2′(1′H)-one]"
1 to 10 µM,114 to 116 °C,< 50%,"O=C1N(Cc2cc(-c3ccc(Cl)cc3)oc2C(F)(F)F)c2ccccc2C12COc1cc3c(cc12)OCO3 (stereo not drawn) [Example 1.15, 1′-{[5-(4-chlorophenyl)-2-(trifluoromethyl)furan-3-yl]methyl}spiro[furo[2,3-f][1,3]benzodioxole-7,3′-indol]-2′(1′H)-one]"
0.001 to 0.1 µM,180 to 182 °C,> 50%,"Cn1nc(C(F)(F)F)c(CN2C(=O)C3(COc4cc5c(cc43)OCO5)c3ccccc32)c1Cl (stereo not drawn) [Example 1.16, 1′-{[5-chloro-1-methyl-3-(trifluoromethyl)-1H-pyrazol-4-yl]methyl}spiro[furo[2,3-f][1,3]benzodioxole-7,3′-indol]-2′(1′H)-one]"
1 to 10 µM,193 to 195 °C,< 50%,"Cc1cc2c(cc1C)C1(CO2)C(=O)N(C(c2ccccc2)c2ccccc2)c2ccccc21 (stereo not drawn) [Example 2.3, 1′-(diphenylmethyl)-5,6-dimethylspiro[1-benzofuran-3,3′-indol]-2′(1′H)-one]"
0.001 to 0.1 µM,138 to 139 °C,> 50%,"COc1ccc(CN2C(=O)C3(COc4cc5onc(C)c5cc43)c3ccccc32)cc1 (stereo not drawn) [Example 2.6, 1′-(4-methoxybenzyl)-3-methylspiro[furo[3,2-f][1,2]benzisoxazole-5,3′-indol]-2′(1′H)-one]"
1 to 10 µM,182 to 184 °C,< 50%,"O=C1N(C(c2ccccc2)c2ccccc2)c2ccccc2C12COc1ccc(F)cc12 (stereo not drawn) [Example 2.9, 1′-(diphenylmethyl)-5-fluorospiro[1-benzofuran-3,3′-indol]-2′(1′H)-one]"
1 to 10 µM,183 to 185 °C,< 50%,"O=C1N(C(c2ccccc2)c2ccccc2)c2ccccc2C12COc1cc3c(cc12)OCCO3 (stereo not drawn) [Example 2.11, 1′-(diphenylmethyl)-2,3-dihydrospiro[furo[2,3-g][1,4]benzodioxine-8,3′-indol]-2′(1′H)-one]"
≥ 10 µM,240 to 242 °C,< 50%,"Cc1nc2cc3c(cc2o1)C1(CO3)C(=O)N(C(c2ccccc2)c2ccccc2)c2ccccc21 (stereo not drawn) [Example 2.14, 1′-(diphenylmethyl)-2-methylspiro[furo[2,3-f][1,3]benzoxazole-7,3′-indol]-2′(1′H)-one]"
≥ 10 µM,228 to 229 °C,< 50%,"Cn1c(=O)oc2cc3c(cc21)OCC31C(=O)N(C(c2ccccc2)c2ccccc2)c2ccccc21 (stereo not drawn) [Example 2.16, 1′-(diphenylmethyl)-3-methylspiro[furo[2,3-f][1,3]benzoxazole-7,3′-indole]-2,2′(1′H,3H)-dione]"
0.001 to 0.1 µM,169 to 171 °C,> 50%,"CC(C)CCN1C(=O)C2(COc3cc4c(cc32)OCCO4)c2c1ccc1ncsc21 (stereo not drawn) [Example 2.24, 6′-isopentyl-3,7-dihydro-2H-spiro[benzofuro[5,6-b][1,4]dioxine-8,8′-thiazolo[5,4-e]indol]-7′(6′H)-one]"
0.1 to 1 µM,189 to 191 °C,> 50%,"O=C1N(Cc2ccc(C(F)(F)F)o2)c2cc3c(cc2C12COc1cc4c(cc12)CCO4)OCCO3 (stereo not drawn) [Example 2.25, 6-((5-(trifluoromethyl)furan-2-yl)methyl)-2,3,5′,6′-tetrahydro-2′H-spiro[f-[1,4]dioxino[2,3-f]indole-8,3′-benzofuro[6,5-b]furan]-7(6H)-one]"
1 to 10 µM,220 to 225 °C,< 50%,"O=C1N(C[C@H]2CCCO2)c2cc3c(cc2C12COc1cc4c(cc12)CCO4)OCCO3 (stereo partly drawn) [Example 2.26, 6-(((R)-tetrahydrofuran-2-yl)methyl)-2,3,5′,6′-tetrahydro-2′H-spiro[[1,4]dioxino[2,3-f]indole-8,3′-benzofuro[6,5-b]furan]-7(6H)-one]"
0.1 to 1 µM,105 °C (dec.),> 50%,"CN1CCOc2cc3c(cc21)C1(CO3)C(=O)N(Cc2ccc(C(F)(F)F)o2)c2ccccc21.Cl (stereo not drawn) [Example 2.28, 1-methyl-1′-{[5-(trifluoromethyl)furan-2-yl]methyl}-2,3-dihydro-1H-spiro[furo[3,2-g][1,4]benzoxazine-8,3′-indol]-2′(1′H)-one hydrochloride]"
0.1 to 1 µM,> 135 °C (dec.),< 50%,"CN1CCOc2cc3c(cc21)C1(CO3)C(=O)N(C[C@H]2CCCO2)c2ccccc21.Cl (stereo partly drawn) [Example 2.29, 1-methyl-1′-[(2R)-tetrahydrofuran-2-ylmethyl]-2,3-dihydro-1H-spiro[furo[3,2-g][1,4]benzoxazine-8,3′-indol]-2′(1′H)-one hydrochloride]"
1 to 10 µM,138 to 140 °C,> 50%,"CN1CCOc2cc3c(cc21)OCC31C(=O)N(C[C@H]2CCCO2)c2ccccc21 (stereo partly drawn) [Example 2.30, 4-methyl-1′-[(2R)-tetrahydrofuran-2-ylmethyl]-3,4-dihydro-2H-spiro[furo[2,3-g][1,4]benzoxazine-8,3′-indol]-2′(1′H)-one]"
1 to 10 µM,200 to 201 °C,< 50%,"O=C1N(Cc2ncccc2C(F)(F)F)c2ccccc2C12COc1cc3c(cc12)OC(F)(F)O3 (stereo not drawn) [Example 2.36, 2,2-difluoro-1′-{[3-(trifluoromethyl)pyridin-2-yl]methyl}spiro[furo[2,3-f][1,3]benzodioxole-7,3′-indol]-2′(1′H)-one]"
0.1 to 1 µM,169 to 170 °C,> 50%,"COc1ccc(CN2C(=O)C3(COc4cc5c(cc43)CCO5)c3c2ccc2ncccc32)cc1 (stereo not drawn) [Example 2.38, 3′-(4-methoxybenzyl)-5,6-dihydrospiro[benzo[1,2-b:5,4-b′]difuran-3,1′-pyrrolo[3,2-f]quinolin]-2′(3′H)-one]"
